Reference: BigSolDB 2.1

COc1ccc([C@@H]2CC(=O)c3c(O)cc(O[C@@H]4O[C@H](CO[C@@H]5O[C@@H](C)[C@H](O)[C@@H](O)[C@H]5O)[C@@H](O)[C@H](O)[C@H]4O)cc3O2)cc1O
Conditions | solubility (mole fraction)
in PEG-400, 298.15 K | 0.00633
in PEG-400, 303.15 K | 0.00749
in PEG-400, 313.15 K | 0.00985
in PEG-400, 323.15 K | 0.0124
in PEG-400, 333.15 K | 0.0152

solubility (mole fraction)
Conditions | in ethanol | in isopropanol | in n-butanol | in propylene glycol | in water
298.15 K | 3.45e-05 | 1.53e-05 | 0.000315 | 0.000535 | 1.47e-07
303.15 K | 3.95e-05 | 1.87e-05 | 0.000359 | 0.000647 | 1.52e-07
313.15 K | 5.27e-05 | 2.61e-05 | 0.000461 | 0.000886 | 1.61e-07
323.15 K | 6.56e-05 | 3.82e-05 | 0.000582 | 0.00114 | 1.7e-07
333.15 K | 8.45e-05 | 5.86e-05 | 0.000715 | 0.00158 | 1.8e-07
